Molecules are shown by their SMILES. A value given as a limit tells only on which side of the number the result lay.

For this test, the target named is T1, EBP (Homo sapiens, UniProt Q15125).
T1 construct: HEK293T cells were utilized as the source of EBP enzyme; endogenous in cells; host or cells: HEK293T
T1 sequence (Q15125 whole entry): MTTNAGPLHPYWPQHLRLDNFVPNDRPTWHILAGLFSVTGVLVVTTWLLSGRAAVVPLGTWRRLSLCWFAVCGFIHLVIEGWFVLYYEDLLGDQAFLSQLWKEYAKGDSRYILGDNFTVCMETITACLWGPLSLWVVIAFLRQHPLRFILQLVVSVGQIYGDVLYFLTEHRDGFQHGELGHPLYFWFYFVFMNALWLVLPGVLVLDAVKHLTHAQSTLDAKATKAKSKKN
Description: EBP Functional Assay (EBP immunoaffinity LC-MS assay). It is filed as biochemical. The following applies: EBP enzyme from HEK293T cells; 30 min with inhibitor, then zymosterol-d5, 37° C., 4 h; percent conversion to dehydrolathosterol-d5 by LC-APCI MRM MS. The protocol: The EBP immunoaffinity (IA) LC-MS assay measures the potency of small molecule inhibitors of EBP by quantifying their concentration-dependent changes in the enzyme's substrate and product using liquid chromatography atmospheric pressure chemical ionization multiple reaction monitoring mass spectrometry (LC-APCI MRM MS). HEK293T cells were utilized as the source of EBP enzyme. The enzyme was incubated with the small molecule inhibitors at variable concentrations for 30 min. Deuterated form of EBP substrate, zymosterol-d5 (Avanti Polar Lipids, Cat #700068P-1 mg), was then added and the plate was incubated at 37° C. for 4 h. Finally, the sterol isomers were extracted and injected to LC-APCI MRM MS. MRM transition used for the quantification for both zymosterol and […] (substrate and product of EBP enzymatic reaction, respectively) is 372.3-203.2, CE 30 and DP 80 in positive ion mode. Percent conversion of the zymosterol-d5 to dehydrolathosterol-d5 was used to derive IC50 curves. Tasin-1 (1′-[(4-Methoxyphenyl)sulfonyl]-4-methyl-1,4′-bipiperidine, CAS 792927-06-1) was used as the reference small molecule inhibitor.
Percent conversion versus the compound concentration data were fit to the following 4-parameter logistic model to generate IC50 curves: […]
The term IC50 denotes the point on the concentration scale where inhibition reaches its midpoint. High values mean weaker potency, low ones greater potency. For the compound `COC1CCC(N2CC3(C2)CN(S(=O)(=O)c2ccc(C(F)F)nc2C2CC2)C3)CC1` (single isomer, unassigned) [Example 117, 2-((2-cyclopropyl-6-(difluoromethyl)pyridin-3-yl)sulfonyl)-6-(4-methoxycyclohexyl)-2,6-diazaspiro[3.3]heptane], the IC50 lay within 250 to 4000 nM.

In turn, `COC1CCC(N2CC3(C2)CN(S(=O)(=O)c2ccc(C(F)F)nc2C2CC2)C3)CC1` (single isomer, unassigned) [Example 118, 2-((2-cyclopropyl-6-(difluoromethyl)pyridin-3-yl)sulfonyl)-6-(4-methoxycyclohexyl)-2,6-diazaspiro[3.3]heptane] returned an IC50 of 100 to 250 nM.

For the compound `CC1(O)CCC(N2CC3(C2)CN(S(=O)(=O)c2cnc(C(F)(F)F)cc2C2CC2)C3)CC1` (single isomer, unassigned) [Example 123, 4-(6-((4-cyclopropyl-6-(trifluoromethyl)pyridin-3-yl)sulfonyl)-2,6-diazaspiro[3.3]heptan-2-yl)-1-methylcyclohexan-1-ol], the IC50 lay in the range of 100 to 250 nM.

`CC1(O)CCC(N2CC3(C2)CN(S(=O)(=O)c2cnc(C(F)(F)F)cc2C2CC2)C3)CC1` (single isomer, unassigned) [Example 124, 4-(6-((4-cyclopropyl-6-(trifluoromethyl)pyridin-3-yl)sulfonyl)-2,6-diazaspiro[3.3]heptan-2-yl)-1-methylcyclohexan-1-ol] had an IC50 of 100 to 250 nM.

`CCc1cc(C(F)(F)F)ncc1S(=O)(=O)N1CC2(CN(C3CCC(C)(O)CC3)C2)C1` (single isomer, unassigned) [Example 127, 4-(6-((4-ethyl-6-(trifluoromethyl)pyridin-3-yl)sulfonyl)-2,6-diazaspiro[3.3]heptan-2-yl)-1-methylcyclohexan-1-ol]: the IC50 is below 100 nM.

Compound `CCc1cc(C(F)(F)F)ncc1S(=O)(=O)N1CC2(CN(C3CCC(C)(O)CC3)C2)C1` (single isomer, unassigned) [Example 128, 4-(6-((4-ethyl-6-(trifluoromethyl)pyridin-3-yl)sulfonyl)-2,6-diazaspiro[3.3]heptan-2-yl)-1-methylcyclohexan-1-ol] returned an IC50 below 100 nM.

As for `Cc1nc(C(F)(F)F)ccc1S(=O)(=O)N1CC2(CN(C(C)C3CCOCC3)C2)C1` (single isomer, unassigned) [Example 156], the IC50 was below 100 nM.

On to `Cc1nc(C(F)(F)F)ccc1S(=O)(=O)N1CC2(CN(C(C)C3COC3)C2)C1` (single isomer, unassigned) [Example 158], for which the IC50 was 250 to 4000 nM.

Turning to `Cc1nc(C(F)(F)F)ccc1S(=O)(=O)N1CC2(CN(C(C)C3COC3)C2)C1` (single isomer, unassigned) [Example 159], the concentration for half-maximal inhibition (IC50) was below 100 nM.

Compound `Cc1nc(C(F)(F)F)ccc1S(=O)(=O)N1CC2(CN(CC3CCOC3)C2)C1` (single isomer, unassigned) [Example 160] showed an IC50 of 100 to 250 nM.

Compound `Cc1nc(C(F)(F)F)ccc1S(=O)(=O)N1CC2(CN(CC3CCOC3)C2)C1` (single isomer, unassigned) [Example 161] registered an IC50 of 250 to 4000 nM.

In turn, `Cn1nc(C(F)(F)F)cc1S(=O)(=O)N1CC2(CN(CC3CCOC(C)(C)C3)C2)C1` (single isomer, unassigned) [Example 199] yielded an IC50 of 100 to 250 nM.

Turning to `Cn1nc(C(F)(F)F)cc1S(=O)(=O)N1CC2(CN(CC3CCOC(C)(C)C3)C2)C1` (single isomer, unassigned) [Example 200], the IC50 lay within 100 to 250 nM.

As for `O=S(=O)(c1ccc(OC(F)F)cc1)N1CCOC2(CN(C3CCOCC3)C2)C1` [Example 1, 8-((4-(Difluoromethoxy)phenyl)sulfonyl)-2-(tetrahydro-2H-pyran-4-yl)-5-oxa-2,8-diazaspiro[3.5]nonane], the IC50 was in the range of 250 to 4000 nM.

Take `O=S(=O)(c1ccc(OC(F)F)cc1)N1CCOC2(CCN(C3CCOCC3)CC2)C1` [Example 5, 4-((4-(Difluoromethoxy)phenyl)sulfonyl)-9-(tetrahydro-2H-pyran-4-yl)-1-oxa-4,9-diazaspiro[5.5]undecane]: the IC50 is 100 to 250 nM.

`COCCN1CCC2(CC1)CN(S(=O)(=O)c1ccc(OC(F)F)cc1)CCO2` [Example 7, 4-((4-(Difluoromethoxy)phenyl)sulfonyl)-9-(2-methoxyethyl)-1-oxa-4,9-diazaspiro[5.5]undecane] had an IC50 of 250 to 4000 nM.

For the compound `CC(C)(O)CN1CCC2(CC1)CN(S(=O)(=O)c1ccc(OC(F)F)cc1)CCO2` [Example 10, 1-(4-((4-(Difluoromethoxy)phenyl)sulfonyl)-1-oxa-4,9-diazaspiro[5.5]undecan-9-yl)-2-methylpropan-2-ol], the IC50 was in the range of 250 to 4000 nM.

On to `COC(C)(C)CN1CCC2(CC1)CN(S(=O)(=O)c1ccc(OC(F)F)cc1)CCO2` [Example 11, 4-((4-(Difluoromethoxy)phenyl)sulfonyl)-9-(2-methoxy-2-methylpropyl)-1-oxa-4,9-diazaspiro[5.5]undecane], for which the IC50 lay in the range of 100 to 250 nM.

`O=S(=O)(c1ccc(F)cc1F)N1CCOC2(CCN(C3CCOCC3)C2)C1` (stereo not drawn) [Example 12, 9-((2,4-Difluorophenyl)sulfonyl)-2-(tetrahydro-2H-pyran-4-yl)-6-oxa-2,9-diazaspiro[4.5]decane] registered a 50% inhibitory concentration (IC50) of 250 to 4000 nM.

In the case of `O=S(=O)(c1cc(F)cc(F)c1)N1CCOC2(CCN(C3CCOCC3)C2)C1` (stereo not drawn) [Example 13, 9-((3,5-Difluorophenyl)sulfonyl)-2-(tetrahydro-2H-pyran-4-yl)-6-oxa-2,9-diazaspiro[4.5]decane], the IC50 is below 100 nM.

`COc1ncc(C)cc1S(=O)(=O)N1CCOC2(CCN(C3CCOCC3)C2)C1` (stereo not drawn) [Example 16, 9-((2-Methoxy-5-methylpyridin-3-yl)sulfonyl)-2-(tetrahydro-2H-pyran-4-yl)-6-oxa-2,9-diazaspiro[4.5]decane]: the IC50 lay within 250 to 4000 nM.

For `O=S(=O)(c1ccc(OC(F)F)cc1)N1CCOC2(CCN(CC3COC3)C2)C1` (stereo not drawn) [Example 17, 9-((4-(Difluoromethoxy)phenyl)sulfonyl)-2-(oxetan-3-ylmethyl)-6-oxa-2,9-diazaspiro[4.5]decane], the IC50 lay within 250 to 4000 nM.

For the compound `O=S(=O)(c1ccc(OC(F)F)cc1)N1CCOC2(CCN(CC3CCOCC3)C2)C1` (stereo not drawn) [Example 18, 9-((4-(Difluoromethoxy)phenyl)sulfonyl)-2-((tetrahydro-2H-pyran-4-yl)methyl)-6-oxa-2,9-diazaspiro[4.5]decane], the IC50 was 250 to 4000 nM.

As for `O=S(=O)(c1ccc(OC(F)F)cc1)N1CCOC2(CCN(CC3CCOCC3)CC2)C1` [Example 19, 4-((4-(Difluoromethoxy)phenyl)sulfonyl)-9-((tetrahydro-2H-pyran-4-yl)methyl)-1-oxa-4,9-diazaspiro[5.5]undecane], the IC50 was in the range of 250 to 4000 nM.

`CC1(CN2CCC3(CC2)CN(S(=O)(=O)c2ccc(OC(F)F)cc2)CCO3)COC1` [Example 20, 4-((4-(Difluoromethoxy)phenyl)sulfonyl)-9-((3-methyloxetan-3-yl)methyl)-1-oxa-4,9-diazaspiro[5.5]undecane]: the IC50 was in the range of 100 to 250 nM.

As for `CC1(C)CC(N2CCC3(CC2)CN(S(=O)(=O)c2ccc(OC(F)F)cc2)CCO3)CCO1` (stereo not drawn) [Example 21, 4-((4-(Difluoromethoxy)phenyl)sulfonyl)-9-(2,2-dimethyltetrahydro-2H-pyran-4-yl)-1-oxa-4,9-diazaspiro[5.5]undecane], the IC50 fell in the range of 250 to 4000 nM.

Take `O=S(=O)(c1cnc(C2CC2)s1)N1CCOC2(CN(C3CCOCC3)C2)C1` [Example 22, 8-((2-Cyclopropylthiazol-5-yl)sulfonyl)-2-(tetrahydro-2H-pyran-4-yl)-5-oxa-2,8-diazaspiro[3.5]nonane]: the IC50 fell in the range of 250 to 4000 nM.

Compound `O=S(=O)(c1cnc(C2CC2)s1)N1CCOC2(CCN(C3CCOCC3)C2)C1` (stereo not drawn) [Example 23, 9-((2-Cyclopropylthiazol-5-yl)sulfonyl)-2-(tetrahydro-2H-pyran-4-yl)-6-oxa-2,9-diazaspiro[4.5]decane] gave an IC50 of 100 to 250 nM.

Consider `O=S(=O)(c1cnc(C2CC2)s1)N1CCOC2(CCN(C3CC4(COC4)C3)C2)C1` (stereo not drawn) [Example 24, 9-((2-Cyclopropylthiazol-5-yl)sulfonyl)-2-(2-oxaspiro[3.3]heptan-6-yl)-6-oxa-2,9-diazaspiro[4.5]decane], for which the IC50 lay in the range of 100 to 250 nM.

For `O=S(=O)(c1cc(F)cc(F)c1)N1CCOC2(CCN(C3CC4(COC4)C3)C2)C1` (stereo not drawn) [Example 28, 9-((3,5-Difluorophenyl)sulfonyl)-2-(2-oxaspiro[3.3]heptan-6-yl)-6-oxa-2,9-diazaspiro[4.5]decane], the IC50 is 100 to 250 nM.

`CC1(CN2CCC3(CC2)CN(S(=O)(=O)c2cc(F)cc(F)c2)CCO3)COC1` [Example 29, 4-((3,5-Difluorophenyl)sulfonyl)-9-((3-methyloxetan-3-yl)methyl)-1-oxa-4,9-diazaspiro[5.5]undecane] returned an IC50 of 100 to 250 nM.

`O=S(=O)(c1ccc(OC(F)F)cc1)N1CCC2(CC1)CN(C1CCOCC1)CCO2` [Example 30, 9-((4-(Difluoromethoxy)phenyl)sulfonyl)-4-(tetrahydro-2H-pyran-4-yl)-1-oxa-4,9-diazaspiro[5.5]undecane] displayed an IC50 of 100 to 250 nM.

With `Cc1ccc(S(=O)(=O)N2CCC3(CC2)CN(C2CCOCC2)C3)c(C)c1` [Example 31, 7-((2,4-Dimethylphenyl)sulfonyl)-2-(tetrahydro-2H-pyran-4-yl)-2,7-diazaspiro[3.5]nonane], the IC50 fell in the range of 250 to 4000 nM.

The values are drawn from patent US20250171463A1 (BIOGEN MA INC., priority 2022, published 2025).
